Assay results as given in ChEMBL document CHEMBL3046389, “Synthesis and biological evaluation of novel hydroquinone dimethyl ethers as potential anticancer and antimicrobial agents” (2013).
In brackets after ≈: the same amount, converted by molar mass.

How the values were obtained:
Type in all cases: functional
[1] = system: RXF 393; assay: Growth inhibition of Homo sapiens (human) RXF393 cells at 10 uM after 48 hr by SRB assay; conditions: RXF 393, 48 h, read-out: GI
[2] = system: Candida albicans; assay: Antimicrobial activity against Candida albicans DSM 70014 after 48 hr by two-fold serial broth dilution method; conditions: DSM 70014, 48 h
[3] = system: Malme-3M; assay: Anticancer activity against Homo sapiens (human) MALME-3M cells after 48 hr by SRB assay
[4] = system: A549; assay: Growth inhibition of Homo sapiens (human) A549/ATCC cells at 10 uM after 48 hr by SRB assay; conditions: A549, 48 h, read-out: GI
[5] = system: CAKI-1; assay: Anticancer activity against Homo sapiens (human) CAKI-1 cells after 48 hr by SRB assay; conditions: CAKI-1, 48 h
[6] = system: SF-268; assay: Anticancer activity against Homo sapiens (human) SF268 cells after 48 hr by SRB assay; conditions: SF-268, 48 h
[7] = system: HOP-62; assay: Anticancer activity against Homo sapiens (human) HOP62 cells after 48 hr by SRB assay; conditions: HOP-62, 48 h
[8] = system: SF-539; assay: Growth inhibition of Homo sapiens (human) SF539 cells at 10 uM after 48 hr by SRB assay; conditions: SF-539, 48 h, read-out: GI
[9] = system: CCRF-CEM; assay: Growth inhibition of Homo sapiens (human) CCRF-CEM cells at 10 uM after 48 hr by SRB assay; conditions: read-out: GI
[10] = system: A498; assay: Anticancer activity against Homo sapiens (human) A498 cells after 48 hr by SRB assay; conditions: A498, 48 h
[11] = system: UACC-257; assay: Anticancer activity against Homo sapiens (human) UACC257 cells after 48 hr by SRB assay; conditions: UACC-257, 48 h
[12] = system: SW-620; assay: Growth inhibition of Homo sapiens (human) SW620 cells at 10 uM after 48 hr by SRB assay; conditions: SW-620, 48 h, read-out: GI
[13] = system: HCT-116; assay: Anticancer activity against Homo sapiens (human) HCT116 cells after 48 hr by SRB assay; conditions: HCT-116, 48 h
[14] = system: UO-31; assay: Growth inhibition of Homo sapiens (human) UO31 cells at 10 uM after 48 hr by SRB assay; conditions: UO-31, 48 h, read-out: GI
[15] = system: SNB-75; assay: Growth inhibition of Homo sapiens (human) SNB75 cells at 10 uM after 48 hr by SRB assay; conditions: SNB-75, 48 h, read-out: GI
[16] = system: SK-MEL-5; assay: Anticancer activity against Homo sapiens (human) SK-MEL-5 cells after 48 hr by SRB assay; conditions: SK-MEL-5, 48 h
[17] = system: UACC-62; assay: Anticancer activity against Homo sapiens (human) UACC62 cells after 48 hr by SRB assay; conditions: UACC-62, 48 h
[18] = system: SNB-75; assay: Anticancer activity against Homo sapiens (human) SNB75 cells after 48 hr by SRB assay; conditions: SNB-75, 48 h
[19] = system: MCF7; assay: Growth inhibition of Homo sapiens (human) MCF7 cells at 10 uM after 48 hr by SRB assay; conditions: MCF7, 48 h, read-out: GI
[20] = system: NCI-H460; assay: Anticancer activity against Homo sapiens (human) NCI-H460 cells after 48 hr by SRB assay; conditions: NCI-H460, 48 h
[21] = system: MCF7; assay: Anticancer activity against Homo sapiens (human) MCF7 cells after 48 hr by SRB assay; conditions: MCF7, 48 h
[22] = system: CCRF-CEM; assay: Anticancer activity against Homo sapiens (human) CCRF-CEM cells after 48 hr by SRB assay
[23] = system: MDA-MB-231; assay: Anticancer activity against Homo sapiens (human) MDA-MB-231/ATCC cells after 48 hr by SRB assay; conditions: MDA-MB-231, 48 h
[24] = system: NCI-H23; assay: Anticancer activity against Homo sapiens (human) NCI-H23 cells after 48 hr by SRB assay; conditions: NCI-H23, 48 h
[25] = system: OVCAR-3; assay: Growth inhibition of Homo sapiens (human) OVCAR3 cells at 10 uM after 48 hr by SRB assay; conditions: OVCAR-3, 48 h, read-out: GI
[26] = system: SK-MEL-2; assay: Anticancer activity against Homo sapiens (human) SK-MEL-2 cells after 48 hr by SRB assay; conditions: SK-MEL-2, 48 h
[27] = system: MDA-MB-435; assay: Growth inhibition of Homo sapiens (human) MDA-MB-435 cells at 10 uM after 48 hr by SRB assay; conditions: MDA-MB-435, 48 h, read-out: GI
[28] = system: MOLT-4; assay: Growth inhibition of Homo sapiens (human) MOLT4 cells at 10 uM after 48 hr by SRB assay; conditions: MOLT-4, 48 h, read-out: GI
[29] = system: Bacillus subtilis; assay: Antimicrobial activity against Bacillus subtilis ATCC 6633 after 48 hr by two-fold serial broth dilution method; conditions: ATCC 6633, 48 h
[30] = system: IGROV-1; assay: Anticancer activity against Homo sapiens (human) IGROV1 cells after 48 hr by SRB assay; conditions: IGROV-1, 48 h
[31] = system: MDA-MB-468; assay: Anticancer activity against Homo sapiens (human) MDA-MB-468 cells after 48 hr by SRB assay; conditions: MDA-MB-468, 48 h
[32] = system: HT-29; assay: Anticancer activity against Homo sapiens (human) HT-29 cells after 48 hr by SRB assay; conditions: HT-29, 48 h
[33] = read-out: LC50 (the source's name)

## COc1ccc(OC)c(/C=C/C(=O)N/N=C/c2ccc(Cl)cc2)c1
[1]
  inhibition of growth at 10 µM: 120%
[2]
  MFC: 50 µg/mL (≈ 145 µM)
  MIC: 25 µg/mL (≈ 72.5 µM)
[3]
  TGI: > 100 µM
[3]; [33]
  CC50: > 100 µM
[4]
  inhibition of growth at 10 µM: 72.2%
[5]
  GI50: 0.0879 µM
  TGI: > 100 µM
[5]; [33]
  CC50: > 100 µM
[6]
  GI50: 0.718 µM
  TGI: > 100 µM
[6]; [33]
  CC50: > 100 µM
[7]
  GI50: 0.162 µM
  TGI: 50.2 µM
[7]; [33]
  CC50: > 100 µM
[8]
  inhibition of growth at 10 µM: 143%
[9]
  inhibition of growth at 10 µM: 86.3%
[10]
  GI50: 0.182 µM
  LC50: > 100 µM
  TGI: 27.5 µM
[11]
  GI50: 36.5 µM
  LC50 (50% lethal concentration): > 100 µM
  TGI: > 100 µM
[12]
  inhibition of growth at 10 µM: 80.1%
[13]
  GI50: 0.075 µM
  TGI: 3.05 µM
[13]; [33]
  CC50: > 100 µM
[14]
  inhibition of growth at 10 µM: 69.9%
[15]
  inhibition of growth at 10 µM: 56%
[16]
  GI50: 0.0581 µM
  LC50: > 100 µM
[17]
  GI50: 0.068 µM
  LC50: > 100 µM
  TGI: > 100 µM
[18]
  GI50: 0.098 µM
  TGI: 1.17 µM
[18]; [33]
  CC50: > 100 µM
[19]
  inhibition of growth at 10 µM: 91.1%
[20]
  GI50: 0.119 µM
  TGI: 13.8 µM
[20]; [33]
  CC50: > 100 µM
[21]
  GI50: 0.0743 µM
  TGI: 32.5 µM
[21]; [33]
  CC50: > 100 µM
[22]
  GI50: 0.228 µM
  TGI: > 100 µM
[22]; [33]
  CC50: > 100 µM
[23]
  GI50: 1.37 µM
  TGI: > 100 µM
[23]; [33]
  CC50: > 100 µM
[24]
  GI50: 0.148 µM
  TGI: 2.46 µM
[24]; [33]
  CC50: > 100 µM
[25]
  inhibition of growth at 10 µM: 143%
[26]
  GI50: 24.7 µM
  TGI: > 100 µM
[26]; [33]
  CC50: > 100 µM
[27]
  inhibition of growth at 10 µM: 132%
[28]
  inhibition of growth at 10 µM: 73.7%
[29]
  MBC: 50 µg/mL (≈ 145 µM)
  MIC: 50 µg/mL (≈ 145 µM)
[30]
  GI50: 0.187 µM
  LC50 (50% lethal concentration): > 100 µM
  TGI: 62.9 µM
[31]
  GI50: 0.142 µM
  TGI: 0.445 µM
[31]; [33]
  CC50: > 100 µM
[32]
  GI50: 0.0435 µM
  TGI: 1.52 µM
[32]; [33]
  CC50: > 100 µM
